Results: patent US20210259246A1, “SUBSTITUTED 4-HETEROARYLOXYPYRIDINES AND SALTS THEREOF AND THEIR USE AS HERBICIDAL AGENTS” (BAYER AKTIENGESELLSCHAFT, priority 2018, published 2021)

Columns and labels:
Format in all cases: in vivo
Agrostis tenuis (AGSTE) = experiment: Herbicidal early post-emergence action; settings: 1900 g/ha; scored visually 9 to 12 days after treatment vs untreated controls; 100% = plants have died, 0% = like control plants
Protocol: (§1) Seeds of monocotyledonous or dicotyledonous weed plants were placed in 96-well microtiter plates in quartz sand and grown in a climatized chamber under controlled growth conditions. 5 to 7 days after sowing, the test plants were treated at the cotyledon stage. The compounds according to the invention, formulated in the form of emulsion concentrates (EC), were applied with a water application rate of the equivalent of 2200 liters per hectare. After the test plants had been left to stand in the climatized chamber for 9 to 12 days under optimum growth conditions, the effect of the preparations was scored visually in comparison to untreated controls. For example, 100% activity=the plants have died, 0% activity=like control plants. Tables A1 to A6 below show the effects of selected compounds of the general formula (I) according to Table 1 on various harmful plants and an application rate corresponding to 1900 g/ha, which were obtained by the experimental procedure mentioned above.

Stellaria media (STEME) [1] = experiment: Herbicidal post-emergence action; settings: 1280 g/ha; rated visually about 3 weeks after treatment vs untreated controls; 100% = plants have died, 0% = like control plants
Protocol: (§2) Seeds of mono- and dicotyledonous weed plants were placed in plastic pots in sandy loam soil (doubly sown with in each case one species of mono- or dicotyledonous weed plants per pot), covered with soil and cultivated in a greenhouse under controlled growth conditions. 2 to 3 weeks after sowing, the test plants were treated at the one-leaf stage. The compounds of the invention, formulated in the form of wettable powders (WP) or as emulsion concentrates (EC), were applied onto the green parts of the plants as aqueous suspension or emulsion with addition of 0.5% additive at a water application rate of 600 liters per hectare (converted). After the test plants had been kept in the greenhouse under optimum growth conditions for about 3 weeks, the activity of the preparations was rated visually in comparison to untreated controls. For example, 100% activity=the plants have died, 0% activity=like control plants. Tables B1 to B6 below show the effects of selected compounds of the general formula (I) according to Table 1 on various harmful plants and an application rate corresponding to 1280 g/ha, which were obtained by the experimental procedure mentioned above.

Poa annua (POAAN) [2] = experiment: Herbicidal post-emergence action; settings: 1280 g/ha; rated visually about 3 weeks after treatment vs untreated controls; 100% = plants have died, 0% = like control plants
Protocol: as §2

[3] = tested on: Amaranthus retroflexus (AMARE); experiment: Herbicidal post-emergence action; settings: 1280 g/ha; rated visually about 3 weeks after treatment vs untreated controls; 100% = plants have died, 0% = like control plants
Protocol: as §2

Stellaria media (STEME) [4] = experiment: Herbicidal pre-emergence action; settings: 1280 g/ha; scored visually after about 3 weeks vs untreated controls; 100% = plants have died, 0% = like control plants
Excerpt: (§3) Seeds of mono- and dicotyledonous weed plants were placed in plastic pots in sandy loam soil (doubly sown with in each case one species of mono- or dicotyledonous weed plants per pot) and covered with soil. The compounds of the invention, formulated in the form of wettable powders (WP) or as emulsion concentrates (EC), were then applied onto the surface of the covering soil as aqueous suspension or emulsion with addition of 0.5% additive at a water application rate of 600 liters per hectare (converted). After the treatment, the pots were placed in a greenhouse and kept under good growth conditions for the test plants. After about 3 weeks, the effect of the preparations was scored visually in comparison with untreated controls as percentages. For example, 100% activity=the plants have died, 0% activity=like control plants. Tables C1 to C8 below show the effects of selected compounds of the general formula (I) according to Table 1 on various harmful plants and an application rate corresponding to 1280 g/ha, which were obtained by the experimental procedure mentioned above.

[5] = tested on: Matricaria inodora (MATIN); experiment: Herbicidal pre-emergence action; settings: 1280 g/ha; scored visually after about 3 weeks vs untreated controls; 100% = plants have died, 0% = like control plants
Excerpt: as §3

Poa annua (POAAN) [6] = experiment: Herbicidal pre-emergence action; settings: 1280 g/ha; scored visually after about 3 weeks vs untreated controls; 100% = plants have died, 0% = like control plants
Excerpt: as §3

[7] = tested on: Amaranthus retroflexus (AMARE); experiment: Herbicidal pre-emergence action; settings: 1280 g/ha; scored visually after about 3 weeks vs untreated controls; 100% = plants have died, 0% = like control plants
Excerpt: as §3

[8] = tested on: Echinochloa crus-galli (ECHCG); experiment: Herbicidal post-emergence action; settings: 1280 g/ha; rated visually about 3 weeks after treatment vs untreated controls; 100% = plants have died, 0% = like control plants
Protocol: as §2

[9] = tested on: Abutilon theophrasti (ABUTH); experiment: Herbicidal post-emergence action; settings: 1280 g/ha; rated visually about 3 weeks after treatment vs untreated controls; 100% = plants have died, 0% = like control plants
Protocol: as §2

Setaria viridis (SETVI) [10] = experiment: Herbicidal pre-emergence action; settings: 1280 g/ha; scored visually after about 3 weeks vs untreated controls; 100% = plants have died, 0% = like control plants
Excerpt: as §3

Lolium rigidum (LOLRI) = experiment: Herbicidal pre-emergence action; settings: 1280 g/ha; scored visually after about 3 weeks vs untreated controls; 100% = plants have died, 0% = like control plants
Excerpt: as §3

[11] = tested on: Echinochloa crus-galli (ECHCG); experiment: Herbicidal pre-emergence action; settings: 1280 g/ha; scored visually after about 3 weeks vs untreated controls; 100% = plants have died, 0% = like control plants
Excerpt: as §3

[12] = tested on: Abutilon theophrasti (ABUTH); experiment: Herbicidal pre-emergence action; settings: 1280 g/ha; scored visually after about 3 weeks vs untreated controls; 100% = plants have died, 0% = like control plants
Excerpt: as §3

Setaria viridis (SETVI) [13] = experiment: Herbicidal early post-emergence action; settings: 1900 g/ha; scored visually 9 to 12 days after treatment vs untreated controls; 100% = plants have died, 0% = like control plants
Protocol: as §1

Lolium perenne (LOLPE) = experiment: Herbicidal early post-emergence action; settings: 1900 g/ha; scored visually 9 to 12 days after treatment vs untreated controls; 100% = plants have died, 0% = like control plants
Protocol: as §1

Veronica persica (VERPE) = experiment: Herbicidal early post-emergence action; settings: 1900 g/ha; scored visually 9 to 12 days after treatment vs untreated controls; 100% = plants have died, 0% = like control plants
Protocol: as §1

[14] = tested on: Diplotaxis muralis (DIPTE); experiment: Herbicidal early post-emergence action; settings: 1900 g/ha; scored visually 9 to 12 days after treatment vs untreated controls; 100% = plants have died, 0% = like control plants
Protocol: as §1

Poa annua (POAAN) [15] = experiment: Herbicidal early post-emergence action; settings: 1900 g/ha; scored visually 9 to 12 days after treatment vs untreated controls; 100% = plants have died, 0% = like control plants
Protocol: as §1

Setaria viridis (SETVI) [16] = experiment: Herbicidal post-emergence action; settings: 1280 g/ha; rated visually about 3 weeks after treatment vs untreated controls; 100% = plants have died, 0% = like control plants
Protocol: as §2

SMILES	Early post-emergence action against Agrostis tenuis (AGSTE) (Agrostis tenuis (AGSTE)) [%]	Post-emergence action against Stellaria media (STEME) (Stellaria media (STEME) [1]) [%]	Post-emergence action against Poa annua (POAAN) (Poa annua (POAAN) [2]) [%]	Post-emergence action against Amaranthus retroflexus (AMARE) [3] [%]	Pre-emergence action against Stellaria media (STEME) (Stellaria media (STEME) [4]) [%]	Pre-emergence action against Matricaria inodora (MATIN) [5] [%]	Pre-emergence action against Poa annua (POAAN) (Poa annua (POAAN) [6]) [%]	Pre-emergence action against Amaranthus retroflexus (AMARE) [7] [%]	Post-emergence action against Echinochloa crus-galli (ECHCG) [8] [%]	Post-emergence action against Abutilon theophrasti (ABUTH) [9] [%]	Pre-emergence action against Setaria viridis (SETVI) (Setaria viridis (SETVI) [10]) [%]	Pre-emergence action against Lolium rigidum (LOLRI) (Lolium rigidum (LOLRI)) [%]	Pre-emergence action against Echinochloa crus-galli (ECHCG) [11] [%]	Pre-emergence action against Abutilon theophrasti (ABUTH) [12] [%]	Early post-emergence action against Setaria viridis (SETVI) (Setaria viridis (SETVI) [13]) [%]	Early post-emergence action against Lolium perenne (LOLPE) (Lolium perenne (LOLPE)) [%]	Early post-emergence action against Veronica persica (VERPE) (Veronica persica (VERPE)) [%]	Early post-emergence action against Diplotaxis muralis (DIPTE) [14] [%]	Early post-emergence action against Poa annua (POAAN) (Poa annua (POAAN) [15]) [%]	Post-emergence action against Setaria viridis (SETVI) (Setaria viridis (SETVI) [16]) [%]
COC(=O)c1cc(Oc2ncc(Cl)cn2)c(Sc2ccc(F)cc2)c(C(=O)OC)n1 [Example 1-50]	80																			
Cc1cc(Oc2ncc(Cl)cn2)c(Sc2cccc(C(F)(F)F)c2)c(C)n1 [Example 1-28]		100	100	90	100	90	90	90												
Cc1nccc(Oc2ncc(F)cn2)c1Oc1ncc(F)cn1 [Example 1-91]					90	90		100												
Cc1cc(Oc2ncc(Cl)cn2)c(Sc2ccc(F)c(F)c2)c(C)n1 [Example 1-27]		100		100	100	100	100	100	100	90	100	100	100	90						
Cc1cc(Oc2ncc(Cl)cn2)c(Sc2ccc(C#N)cc2)c(C)n1 [Example 1-30]		100	100		100	90	100	100	100		90	90	100	90						
Cc1nccc(Oc2ncc(Cl)cn2)c1Sc1ccc(F)cc1 [Example 1-86]	100														80	80	80	80	100	
Cc1cc(Oc2ncc(Cl)cn2)c(Sc2ccc(F)cc2)c(C)n1 [Example 1-26, 2,6-Dimethyl-3-(4-fluorophenylthio)-4-(5-chloropyrimidin-2-yloxy)pyridine]		100	100	100	100	100	100	100	100	100	100	100	100	100						90
